“Also recorded” adds a separate entry of the source. Like-named read-outs stand apart in the source and are kept apart here.
What was measured:
[1] = Hematopoietic toxicity of thiopurines in TPMT-deficient patients; type: in vivo, human
Source text: TPMT phenotype was assigned on the basis of erythrocyte TPMT activity, according to the criteria of Weinshilboum and Sladek (Weinshilboum and Sladek, Am. J. Hum. Genet. 32:651-662 (1980)).

TPMTB = target: T1, TPMTB (Homo sapiens, UniProt P51580, A154T/Y240C); test: S-methylation of 6-MP catalyzed by TPMTB (G460A and A719G) expressed in yeast (kinetic parameters, activity); type: biochemical; conditions: 6MP concentrations up to 2 mM
T1 construct: the whole mutant proteins are expressed in yeast; made in house; host or cells: yeast strain 2805
T1 sequence (P51580 1-245 A154T/Y240C): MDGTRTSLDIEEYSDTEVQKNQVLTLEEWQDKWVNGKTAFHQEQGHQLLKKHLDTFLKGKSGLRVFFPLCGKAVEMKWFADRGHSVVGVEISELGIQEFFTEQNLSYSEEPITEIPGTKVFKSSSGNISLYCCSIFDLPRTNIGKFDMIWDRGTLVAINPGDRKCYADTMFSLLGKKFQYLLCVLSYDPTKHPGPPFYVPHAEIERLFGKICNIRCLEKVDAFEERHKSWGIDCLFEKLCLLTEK
Experimental: Yeast cells transformed with recombinant expression vectors or the vector without TPMT cDNA (control) were grown on galactose-containing medium for 24 hr at 30° C. Yeast cells were treated with Lyticase (Sigma, St. Louis, Mo.), sedimented after washing with a buffer (pH 6.2) containing 20 mM 2-[N-morpholino]ethanesulfonic acid (MES) and 1.5M sorbitol, and resuspended with Tris-HCl buffer (pH 7.8) containing 100 KIU/Ml aprotinin and 1 mM phenylmethylsulfonyl fluoride. After sonication, the cytosolic fraction was obtained by centrifugation at 100,000 g for 60 min at 4° C. The concentration of protein in yeast lysates was determined using the Bio-RadDC protein assay (Lowry, O. H., et al., J. Biol. Chem. 193:265-275 (1951)). The level of expression was measured by Western blot analysis.
These reaction conditions differ from that previously published (Krynetski, E. Y. et al., Mol. Pharmacol. 47:1141-1147 (1995)); i.e. incubation at 37 C instead of 21.5 C, analysis of MeMP production formation instead of substrate disappearance, and the use of higher substrate concentrations in the present study. The amount of TPMT in each reaction was made the same (0.57 μg TPMT) by adjusting the amount of yeast cytosol according to TPMT protein levels detected by the Western-blot analysis. […]

[2] = human, in vivo
TPMTA = TPMTA (Homo sapiens, UniProt P51580, A80P); conditions: heterologously expressed TPMTA
[3] = patients with TPMT deficiency treated with standard dosages; cited from earlier work
TPMT719 = target: T2, TPMT719 (Homo sapiens, UniProt P51580, Y240C)
T2 sequence (P51580 1-245 Y240C): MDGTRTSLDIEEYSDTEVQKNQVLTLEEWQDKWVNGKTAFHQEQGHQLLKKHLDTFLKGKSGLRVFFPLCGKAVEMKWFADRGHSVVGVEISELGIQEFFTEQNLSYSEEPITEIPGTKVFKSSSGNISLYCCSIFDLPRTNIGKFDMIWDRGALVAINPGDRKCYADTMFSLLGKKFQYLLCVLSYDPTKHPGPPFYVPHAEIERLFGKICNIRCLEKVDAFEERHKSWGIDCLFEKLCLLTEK
Source text: (§1) FIGS. 9A, 9B, and 9C depict comparison of TPMT mRNA, protein, and activity levels in yeast transformed with vector alone without any insert (lane 1), vector with wild-type cDNA (lane 2), vector with cDNA containing G460A (lane 3), vector with cDNA containing A719G (lane 4), vector with cDNA containing both G460A and A719G (TPMTB) (lanes 5 and 6).
(§2) The wild type and mutant cDNA clones were used as templates for site-directed mutagenesis. PCR conditions were as described above except that annealing temperature was changed to 50° C. and 1.3 units of Pyrococcus furiosus DNA polymerase (Stratagene, La Jolla, Calif.) was used. […] In order to prepare cDNA containing either mutation found in this patient, two reverse primers were designed for further mutagenesis. […] The resultant PCR products were also ligated into the expression vector. […] Nucleotide structures of all cDNAs were confirmed by sequencing.
(§3) Yeast cells were treated with Lyticase (Sigma, St. Louis, Mo.), sedimented after washing with a buffer (pH 6.2) containing 20 mM 2-[N-morpholino]ethanesulfonic acid (MES) and 1.5M sorbitol, and resuspended with Tris-HCl buffer (pH 7.8) containing 100 KIU/Ml aprotinin and 1 mM phenylmethylsulfonyl fluoride. After sonication, the cytosolic fraction was obtained by centrifugation at 100,000 g for 60 min at 4° C. […] The level of expression was measured by Western blot analysis.
(§4) The amount of TPMT in each reaction was made the same (0.57 μg TPMT) by adjusting the amount of yeast cytosol according to TPMT protein levels detected by the Western-blot analysis.

TPMT460 = test system: TPMT460
Source text: as §1, §2, §3, §4

TPMT [4] = test: TPMT enzymatic activity of yeast lysates expressing wild-type or G238C mutant TPMT cDNA (Example 1); type: biochemical, human; conditions: for enzymatic activity, fold difference between wild-type and G238C mutant TPMT: expressed in yeast; for TPMT activity in yeast lysates: yeast transformed with wild-type or G238C mutant TPMT cDNA
Experimental: In all experiments on heterologous expression of TPMT, yeast transformed with the expression vector without the TPMT cDNA insert was used as a control.
Enzymatic activity of yeast lysates was assayed in a total volume of 1 ml, and formation of the S-methylated thiopurine product was determined by HPLC.

TPMT [5] = test: Intrinsic stability of recombinant TPMT proteins at 37° C. in vitro; type: biochemical, human; conditions: for TPMT activity at 37° C., 0 hr: yeast lysates, 2 mM 6MP and 1 mM SAM; for time to inactivation: 0.1M Tris-HCl pH 7.5
Experimental: Yeast cytosols expressing wild-type TPMT460, or TPMT719 protein were incubated in 0.1M Tris-HCl (pH 7.5) at 37° C. […] The assay of TPMT activity was then allowed to proceed for 15 min at 37° C., and MeMP was measured as described above. Total protein concentrations of yeast lysate in the incubation mixture were 0.09, 0.37, 0.08 mg/ml for the wild-type, TPMT460, and TPMT719, respectively, to give equal amount of TPMT in the incubation. The same assay mixture without yeast lysate served as the blank, and the background values for non-enzymatic methylation (<10%) were subtracted from all values obtained. An aliquot of sample at each time point was taken for Western blot analysis. The samples at 0° C., 0 hr served as controls for the blots with TPMT460 and TPMT719.

[6] = yeast lysates, 10 μM 6MP and 1 mM SAM (FIG. 9C)

Sc1ncnc2nc[nH]c12 [6MP, 6-mercaptopurine]
hematopoietic toxicity ([1]; TPMT-deficient child with acute lymphoblastic leukemia, oral 75 mg/m2 per day): severe hematopoietic toxicity | hematopoietic toxicity ([1]; TPMT-deficient child with acute lymphocytic leukemia, 50 mg/m2/day): severe hematopoietic toxicity | TPMT activity (S-methylation of 6MP) (TPMTB): no activity of TPMTB could be detected; also recorded: undetectable | erythrocyte concentration of TGNs, fold higher than the population median [2]: > 15 fold | erythrocyte concentration of TGNs, population median [2]: 280 pmol/ml pRBC | Vmax/Km ratio, fold lower than wild-type TPMT (TPMTA): 5 fold | hematopoietic toxicity [3]: severe hematopoietic toxicity | intrinsic clearance (Vmax/Km) relative to wild-type (TPMT719): comparable to wild-type | catalytic activity reduced compared with wild-type, normalized to TPMT content (TPMT719; [6]): 1.4 fold | increase in Km for 6MP versus wild-type (TPMT460; substrate 6MP): 46 fold | catalytic activity reduced compared with wild-type, normalized to TPMT content (TPMT460; [6]): 9 fold

C[S+](CC[C@H](N)C(=O)O)C[C@H]1O[C@@H](n2cnc3c(N)ncnc32)[C@H](O)[C@@H]1O (some centres unmarked) [SAM]
increase in Km for co-substrate SAM versus wild-type (TPMT460; co-substrate SAM): 200 fold

Cn1cnc([N+](=O)[O-])c1Sc1ncnc2nc[nH]c12 [azathioprine]
hematopoietic toxicity [3]: severe hematopoietic toxicity

B1: TPMTA: mutant TPMT with G238C point mutation, Ala80→Pro, expressed in yeast (protein)
chain: MDGTRTSLDIEEYSDTEVQKNQVLTLEEWQDKWVNGKTAFHQEQGHQLLKKHLDTFLKGKSGLRVFFPLCGKAVEMKWFPDRGHSVVGVEISELGIQEFFTEQNLSYSEEPITEIPGTKVFKSSSGNISLYCCSIFDLPRTNIGKFDMIWDRGALVAINPGDRKCYADTMFSLLGKKFQYLLCVLSYDPTKHPGPPFYVPHAEIERLFGKICNIRCLEKVDAFEERHKSWGIDCLFEKLYLLTEK
enzymatic activity, fold difference between wild-type and G238C mutant TPMT (TPMT [4]): approximately 100 fold | enzymatic activity, fold difference between wild-type and G238C mutant TPMT (TPMT [4]; listed as mutant TPMT): ≈ 100 fold | TPMT activity in yeast lysates (TPMT [4]): < 1.0 nmol/hr per mg of protein

B2: wild-type TPMT: wild-type human thiopurine S-methyltransferase expressed in yeast (protein)
chain: MDGTRTSLDIEEYSDTEVQKNQVLTLEEWQDKWVNGKTAFHQEQGHQLLKKHLDTFLKGKSGLRVFFPLCGKAVEMKWFADRGHSVVGVEISELGIQEFFTEQNLSYSEEPITEIPGTKVFKSSSGNISLYCCSIFDLPRTNIGKFDMIWDRGALVAINPGDRKCYADTMFSLLGKKFQYLLCVLSYDPTKHPGPPFYVPHAEIERLFGKICNIRCLEKVDAFEERHKSWGIDCLFEKLYLLTEK
TPMT activity in yeast lysates (TPMT [4]): 113-123 nmol/hr per mg of protein | TPMT activity remaining (TPMT [5]; 37° C., 12 hr): 30% | TPMT activity at 37° C., 0 hr (TPMT [5]): 83.7 nmol/min/mg TPMT

B3: TPMT460: TPMT from cDNA containing only G460A (Ala154→Thr), expressed in yeast (protein)
chain: MDGTRTSLDIEEYSDTEVQKNQVLTLEEWQDKWVNGKTAFHQEQGHQLLKKHLDTFLKGKSGLRVFFPLCGKAVEMKWFADRGHSVVGVEISELGIQEFFTEQNLSYSEEPITEIPGTKVFKSSSGNISLYCCSIFDLPRTNIGKFDMIWDRGTLVAINPGDRKCYADTMFSLLGKKFQYLLCVLSYDPTKHPGPPFYVPHAEIERLFGKICNIRCLEKVDAFEERHKSWGIDCLFEKLYLLTEK
time to inactivation (TPMT [5]; 37° C.): ≤ 4 h | TPMT activity at 37° C., 0 hr (TPMT [5]): 142.5 nmol/min/mg TPMT

B4: TPMT719: TPMT from cDNA containing only A719G (Tyr240→Cys), expressed in yeast (protein)
chain: MDGTRTSLDIEEYSDTEVQKNQVLTLEEWQDKWVNGKTAFHQEQGHQLLKKHLDTFLKGKSGLRVFFPLCGKAVEMKWFADRGHSVVGVEISELGIQEFFTEQNLSYSEEPITEIPGTKVFKSSSGNISLYCCSIFDLPRTNIGKFDMIWDRGALVAINPGDRKCYADTMFSLLGKKFQYLLCVLSYDPTKHPGPPFYVPHAEIERLFGKICNIRCLEKVDAFEERHKSWGIDCLFEKLCLLTEK
time to inactivation (TPMT [5]; 37° C.): ≤ 4 h | TPMT activity at 37° C., 0 hr (TPMT [5]): 88.6 nmol/min/mg TPMT

Source: US5856095A, “Identification of two novel mutant alleles of human thiopurine S-methyltransferase, and diagnostic uses thereof” (priority 1995, dated 1999)
